Assay results as given in patent publication US10227342B2 (ARIAD PHARMACEUTICALS, INC., priority 2014, dated 2019).
pIC50: −log10 of the molar value.

What was measured:
Assay type in all cases: cell-based
[1] = molecular target: human EGFR exon 20 insertion ASV (V769_D770insASV) (Homo sapiens (Human), UniProt P00533, INS769ASV); test: Ba/F3-EGFR-Exon20-ASV cell anti-proliferative assay (CellTiter 96 MTS, 72 h); conditions: Ba/F3-EGFR-Exon20-ASV cells;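 further: Ba/F3 cells bearing the EGFR exon 20 ASV insertion, a line able to proliferate without IL-3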
Sequence of human EGFR exon 20 insertion ASV (V769_D770insASV) (P00533 other isoform, or with tags, fused parts or gaps ins ASV behind 769): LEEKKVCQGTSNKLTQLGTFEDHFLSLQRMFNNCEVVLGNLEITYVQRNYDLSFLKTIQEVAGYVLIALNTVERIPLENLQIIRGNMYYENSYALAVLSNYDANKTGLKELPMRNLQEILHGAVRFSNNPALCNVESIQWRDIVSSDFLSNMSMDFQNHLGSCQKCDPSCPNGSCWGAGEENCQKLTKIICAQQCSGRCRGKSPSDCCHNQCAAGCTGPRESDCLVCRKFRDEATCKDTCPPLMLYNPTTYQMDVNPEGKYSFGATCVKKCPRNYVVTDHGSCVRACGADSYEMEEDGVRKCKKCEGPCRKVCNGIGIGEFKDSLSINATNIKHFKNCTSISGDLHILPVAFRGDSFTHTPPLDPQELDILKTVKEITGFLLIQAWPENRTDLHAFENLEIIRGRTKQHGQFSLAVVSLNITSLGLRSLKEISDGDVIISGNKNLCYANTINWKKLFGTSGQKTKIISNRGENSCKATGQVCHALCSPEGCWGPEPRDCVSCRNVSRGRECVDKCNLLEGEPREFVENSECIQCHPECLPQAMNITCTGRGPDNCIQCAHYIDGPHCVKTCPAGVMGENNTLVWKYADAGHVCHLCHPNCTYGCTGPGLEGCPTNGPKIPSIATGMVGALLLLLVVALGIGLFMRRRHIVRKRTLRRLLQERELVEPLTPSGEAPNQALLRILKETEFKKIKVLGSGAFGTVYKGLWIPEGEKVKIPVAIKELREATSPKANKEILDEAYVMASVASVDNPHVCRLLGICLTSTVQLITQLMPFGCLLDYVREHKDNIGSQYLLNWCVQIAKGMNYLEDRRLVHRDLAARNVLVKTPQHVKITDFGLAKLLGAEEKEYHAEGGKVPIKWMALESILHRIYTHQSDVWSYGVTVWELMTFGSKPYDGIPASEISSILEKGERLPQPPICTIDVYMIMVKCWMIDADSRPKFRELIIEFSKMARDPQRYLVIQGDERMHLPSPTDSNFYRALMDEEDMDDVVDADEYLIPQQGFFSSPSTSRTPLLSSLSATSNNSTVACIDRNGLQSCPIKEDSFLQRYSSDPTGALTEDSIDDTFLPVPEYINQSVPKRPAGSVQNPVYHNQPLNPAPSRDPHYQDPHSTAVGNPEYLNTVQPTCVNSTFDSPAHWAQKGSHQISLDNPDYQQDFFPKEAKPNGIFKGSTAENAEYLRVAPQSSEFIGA
Description: Ba/F3 cells expressing EGFR exon 20 insertions (named Ba/F3-EGFR-Exon20-NPG or Ba/F3-EGFR-Exon20-ASV) can proliferate in the absence of IL-3. The anti-proliferative activity of compounds were determined as follows: BaF3-EGFR-Exon20 cells (NPG or ASV) seeded in 96 well plates (2500 cells/well) were treated with test compound (dissolved in DMSO) at a series of concentrations (4-fold dilution, top concentration: 10,000 nM). The plates were incubated for 72 h in a 37° C. incubator with 5% CO2, and the number of viable cells in each well were measured indirectly by CellTiter 96® Aqueous One Solution Cell Proliferation Assay (Promega) This assay is a colorimetric method for determining the number of viable cells through measurement of their metabolic activity by detection of enzymatic conversion of tetrazolium salts into blue formazan derivatives. Reagent (20 μL) was added into each well, and the plates were returned to the incubator for 2 h. The absorbance in each well was then measured at 490 nm using an Envision plate reader (Perkin Elmer).

[2] = molecular target: human EGFR exon 20 insertion NPG (H773_V774insNPG) (Homo sapiens, UniProt P00533, INS773NPG, cells depend on it); test: Ba/F3-EGFR-Exon20-NPG cell anti-proliferative assay (CellTiter 96 MTS, 72 h); conditions: read-out: EGFR exon 20 NPG insertion IC50
Sequence of human EGFR exon 20 insertion NPG (H773_V774insNPG) (P00533 with tags, fused parts or gaps INS773NPG limits assumed): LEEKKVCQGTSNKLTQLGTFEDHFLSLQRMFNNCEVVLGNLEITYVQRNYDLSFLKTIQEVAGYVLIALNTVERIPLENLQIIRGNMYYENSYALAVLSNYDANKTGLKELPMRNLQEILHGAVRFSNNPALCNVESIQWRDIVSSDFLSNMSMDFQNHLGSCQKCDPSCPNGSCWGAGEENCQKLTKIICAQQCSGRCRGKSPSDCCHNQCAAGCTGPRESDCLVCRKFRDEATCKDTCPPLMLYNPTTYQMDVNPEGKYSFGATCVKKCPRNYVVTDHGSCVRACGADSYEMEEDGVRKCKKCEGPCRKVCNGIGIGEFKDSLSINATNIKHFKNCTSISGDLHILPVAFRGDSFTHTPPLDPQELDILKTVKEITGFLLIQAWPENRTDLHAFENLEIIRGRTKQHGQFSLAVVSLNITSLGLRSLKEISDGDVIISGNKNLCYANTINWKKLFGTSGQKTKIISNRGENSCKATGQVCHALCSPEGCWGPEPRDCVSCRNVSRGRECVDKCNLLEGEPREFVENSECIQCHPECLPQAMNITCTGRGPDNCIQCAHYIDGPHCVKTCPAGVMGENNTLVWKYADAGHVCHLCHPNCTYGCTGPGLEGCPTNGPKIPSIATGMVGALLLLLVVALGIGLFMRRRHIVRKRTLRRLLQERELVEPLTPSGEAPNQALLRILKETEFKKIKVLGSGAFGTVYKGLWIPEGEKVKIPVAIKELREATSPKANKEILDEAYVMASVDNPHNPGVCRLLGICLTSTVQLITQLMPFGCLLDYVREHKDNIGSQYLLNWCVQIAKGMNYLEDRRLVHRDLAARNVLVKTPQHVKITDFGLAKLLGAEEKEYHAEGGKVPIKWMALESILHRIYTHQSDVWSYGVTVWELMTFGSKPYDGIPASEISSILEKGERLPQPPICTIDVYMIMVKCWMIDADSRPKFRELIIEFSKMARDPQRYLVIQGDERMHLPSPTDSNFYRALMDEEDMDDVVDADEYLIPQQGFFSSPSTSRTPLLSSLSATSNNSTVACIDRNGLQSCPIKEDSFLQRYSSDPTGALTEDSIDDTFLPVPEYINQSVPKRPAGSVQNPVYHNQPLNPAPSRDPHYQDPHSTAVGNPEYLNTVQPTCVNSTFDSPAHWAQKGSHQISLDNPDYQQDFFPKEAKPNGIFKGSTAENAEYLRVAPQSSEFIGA

[3] = molecular target: human EGFR L858R and T790M double mutation (LT) (Homo sapiens (Human), UniProt P00533, L858R/T790M); test: Ba/F3-EGFR L858R/T790M cell anti-proliferative assay (CellTiter 96 MTS, 72 h); conditions: Ba/F3-EGFR L858R/T790M cells; for pIC50: read-out: EGFR exon 21 L858R and T790M mutation IC50;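 on all read-outs here: Ba/F3 cells carrying the EGFR L858R/T790M double mutant are able to grow without IL-3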
Sequence of human EGFR L858R and T790M double mutation (LT) (P00533 25-1210 T790M/L858R): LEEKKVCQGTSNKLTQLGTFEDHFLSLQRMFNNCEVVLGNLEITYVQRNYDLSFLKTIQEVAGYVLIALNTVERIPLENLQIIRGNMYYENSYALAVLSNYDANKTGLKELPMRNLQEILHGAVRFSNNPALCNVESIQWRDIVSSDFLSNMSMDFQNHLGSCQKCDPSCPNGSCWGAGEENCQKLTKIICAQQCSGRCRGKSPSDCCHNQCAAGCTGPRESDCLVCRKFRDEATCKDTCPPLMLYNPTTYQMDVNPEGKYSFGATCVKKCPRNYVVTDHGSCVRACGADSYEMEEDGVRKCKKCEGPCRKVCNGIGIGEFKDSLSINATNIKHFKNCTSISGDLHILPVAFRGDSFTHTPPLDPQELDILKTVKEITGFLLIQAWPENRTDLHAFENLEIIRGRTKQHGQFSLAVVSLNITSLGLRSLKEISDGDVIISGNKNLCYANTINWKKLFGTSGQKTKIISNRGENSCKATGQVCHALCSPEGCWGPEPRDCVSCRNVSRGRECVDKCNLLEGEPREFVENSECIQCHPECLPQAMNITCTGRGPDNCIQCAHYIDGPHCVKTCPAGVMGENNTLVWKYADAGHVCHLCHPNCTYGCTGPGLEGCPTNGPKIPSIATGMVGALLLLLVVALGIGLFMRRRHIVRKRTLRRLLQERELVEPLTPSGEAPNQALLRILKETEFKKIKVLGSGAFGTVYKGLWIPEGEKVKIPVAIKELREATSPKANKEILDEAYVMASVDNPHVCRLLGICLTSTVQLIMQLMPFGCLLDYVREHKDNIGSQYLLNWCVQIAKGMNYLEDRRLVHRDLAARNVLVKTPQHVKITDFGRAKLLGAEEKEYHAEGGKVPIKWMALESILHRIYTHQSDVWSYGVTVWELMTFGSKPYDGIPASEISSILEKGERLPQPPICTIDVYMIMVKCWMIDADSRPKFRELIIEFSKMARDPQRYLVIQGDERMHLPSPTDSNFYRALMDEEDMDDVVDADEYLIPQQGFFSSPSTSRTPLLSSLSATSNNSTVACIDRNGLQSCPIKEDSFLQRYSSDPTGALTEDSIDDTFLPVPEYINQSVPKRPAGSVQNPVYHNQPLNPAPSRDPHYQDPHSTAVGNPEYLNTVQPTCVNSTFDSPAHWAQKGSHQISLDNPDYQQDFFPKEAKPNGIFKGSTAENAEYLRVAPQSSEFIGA
Description: An expression vector, pLVX-IRES puro (Clontech) coding for human EGFR L858R and T790M double mutation, was transfected into HEK293 cells by the Trans-Lentiviral ORF Packaging System (Thermo Scientific), to produce virus encoding EGFR L858R and T790M double mutations. […] Ba/F3 cells expressing EGFR L858R and T790M double mutation (named Ba/F3-EGFR L858R/T790M) can proliferate in the absence of IL-3. The anti-proliferative activity of compounds was determined as follows: BaF3-EGFR L858R/T790M cells seeded in 96 well plates (2500 cells/well) were treated with test compound (dissolved in DMSO) at a series of concentrations (4-fold dilution, top concentration: 10,000 nM). The plates were incubated for 72 h in a 37° C. incubator with 5% CO2, and the number of viable cells in each well were measured indirectly by CellTiter 96® Aqueous One Solution Cell Proliferation Assay (Promega; this assay is a colorimetric method for determining the number of viable cells through measurement of their metabolic activity by detection of enzymatic conversion of tetrazolium salts into blue formazan derivatives). Reagent (20 μL) was added into each well, and the plates were returned to the incubator for 2 h. The absorbance in each well was then measured at 490 nm using an Envision plate reader (Perkin Elmer).

[4] = molecular target: human EGFR E746-A750 deletion and T790M Mutation (DT) (Homo sapiens (Human), UniProt P00533, DEL746-750/T790M); test: Ba/F3-EGFR-Del/T790M cell anti-proliferative assay (CellTiter 96 MTS, 72 h); conditions: Ba/F3-EGFR-Del/T790M cells; for pIC50: read-out: EGFR exon 19 deletion and T790M mutation IC50
Sequence of human EGFR E746-A750 deletion and T790M Mutation (DT) (P00533 other isoform, or with tags, fused parts or gaps T790M/del E746-A750): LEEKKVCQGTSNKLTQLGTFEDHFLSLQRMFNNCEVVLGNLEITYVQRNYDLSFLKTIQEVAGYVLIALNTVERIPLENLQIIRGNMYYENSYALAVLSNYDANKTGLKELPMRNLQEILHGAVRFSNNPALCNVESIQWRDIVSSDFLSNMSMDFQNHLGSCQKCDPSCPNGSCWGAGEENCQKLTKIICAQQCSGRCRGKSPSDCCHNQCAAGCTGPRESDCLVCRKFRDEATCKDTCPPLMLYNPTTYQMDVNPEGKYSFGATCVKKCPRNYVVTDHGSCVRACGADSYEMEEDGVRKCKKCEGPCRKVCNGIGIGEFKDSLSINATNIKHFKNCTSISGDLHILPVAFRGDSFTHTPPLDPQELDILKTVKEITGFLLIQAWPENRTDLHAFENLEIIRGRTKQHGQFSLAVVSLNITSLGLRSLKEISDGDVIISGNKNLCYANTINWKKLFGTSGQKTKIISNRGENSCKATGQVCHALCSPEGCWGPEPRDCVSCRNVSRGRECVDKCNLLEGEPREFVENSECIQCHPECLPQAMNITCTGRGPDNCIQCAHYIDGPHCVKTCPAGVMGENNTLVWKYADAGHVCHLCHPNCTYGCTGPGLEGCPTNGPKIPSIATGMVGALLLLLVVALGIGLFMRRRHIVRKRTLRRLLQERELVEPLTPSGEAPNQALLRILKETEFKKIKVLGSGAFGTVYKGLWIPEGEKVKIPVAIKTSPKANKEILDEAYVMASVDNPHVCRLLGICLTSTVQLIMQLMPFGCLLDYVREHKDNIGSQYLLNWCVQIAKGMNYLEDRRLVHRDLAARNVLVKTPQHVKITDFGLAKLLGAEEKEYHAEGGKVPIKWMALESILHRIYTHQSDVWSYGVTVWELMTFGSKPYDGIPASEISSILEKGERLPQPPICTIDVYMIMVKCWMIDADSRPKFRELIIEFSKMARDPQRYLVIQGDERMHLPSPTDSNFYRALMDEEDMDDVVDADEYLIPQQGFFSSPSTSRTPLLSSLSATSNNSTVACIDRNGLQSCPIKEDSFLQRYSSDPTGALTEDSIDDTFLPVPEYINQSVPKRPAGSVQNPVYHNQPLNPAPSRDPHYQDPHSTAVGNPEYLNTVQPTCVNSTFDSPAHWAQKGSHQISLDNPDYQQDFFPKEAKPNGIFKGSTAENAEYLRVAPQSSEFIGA
Description: An expression vector, pLVX-IRES puro (Clontech) coding for human EGFR E746-A750 deletion and T790M Mutation, was transfected into HEK293 cells by the Trans-Lentiviral ORF Packaging System (Thermo Scientific), to produce virus encoding EGFR exon 19 deletion and T790M mutations. […] Ba/F3 cells expressing EGFR E746-A750 deletion and T790M Mutation (named Ba/F3-EGFR-Del/T790M) can proliferate in the absence of IL-3. The anti-proliferative activity of compounds was determined as follows: BaF3-EGFR-Del/T790M cells seeded in 96 well plates (2500 cells/well) were treated with test compound (dissolved in DMSO) at a series of concentrations (4-fold dilution, top concentration: 10,000 nM). The plates were incubated for 72 h in a 37° C. incubator with 5% CO2, and the number of viable cells in each well were measured indirectly by CellTiter 96® Aqueous One Solution Cell Proliferation Assay (Promega; this assay is a colorimetric method for determining the number of viable cells through measurement of their metabolic activity by detection of enzymatic conversion of tetrazolium salts into blue formazan derivatives). Reagent (20 μL) was added into each well, and the plates were returned to the incubator for 2 h. The absorbance in each well was then measured at 490 nm using an Envision plate reader (Perkin Elmer).

[5] = molecular target: Her2 exon 20 YVMA insertion (A775_G776ins YVMA) (Homo sapiens (Human), UniProt P04626, INS775YVMA); test: Ba/F3-Her2 Exon20 YVMA cell anti-proliferative assay (CellTiter 96 MTS, 72 h); conditions: Ba/F3-Her2 Exon20 YVMA cells
Description: Ba/F3 cells expressing Her2 Exon20 YVMA insertions (named Ba/F3-Her2 Exon20 YVMA) can proliferate in the absence of IL-3.

| SMILES | pIC50 [1] | pIC50 [2] | EGFR exon 21 L858R and T790M mutation IC50 [3] | pIC50 [4] | pIC50 [5] | pIC50 [3] | EGFR exon 19 deletion and T790M mutation IC50 [4] |
| --- | --- | --- | --- | --- | --- | --- | --- |
| C=CC(=O)Nc1cc(Nc2ncc(C(=O)OC(C)C)c(-c3cn(C)c4ncccc34)n2)c(OC)cc1N(C)CCNC [Example 74, isopropyl 2-((5-acrylamido-2-methoxy-4-(methyl(2-(methylamino)ethyl)amino)phenyl)amino)-4-(1-methyl-1H-pyrrolo[2,3-b]pyridin-3-yl)pyrimidine-5-carboxylate] | > 7.00 | > 7.00 | B (Group B compounds have an IC50 value for the indicated mutant between about 100 to about 500 nM) | > 7.00 | 6.30 to 7.00 | – | – |
| C=CC(=O)Nc1cc(Nc2ncc(C(=O)OC(C)C)c(-c3c[nH]c4ncccc34)n2)c(OC)cc1N(C)CCN(C)C [Example 66, isopropyl 2-((5-acrylamido-4-((2-(dimethylamino)ethyl)(methyl)amino)-2-methoxyphenyl)amino)-4-(1H-pyrrolo[2,3-b]pyridin-3-yl)pyrimidine-5-carboxylate] | > 7.00 | > 7.00 | – | > 7.00 | > 7.00 | > 7.00 | – |
| C=CC(=O)Nc1cc(Nc2ncc(C(=O)OC(C)C)c(-c3cn(C)c4ccccc34)n2)c(OC)cc1OCCN(C)C [Example 67, isopropyl 2-((5-acrylamido-4-(2-(dimethylamino)ethoxy)-2-methoxyphenyl)amino)-4-(1-methyl-1H-indol-3-yl)pyrimidine-5-carboxylate] | > 7.00 | > 7.00 | – | > 7.00 | > 7.00 | > 7.00 | – |
| C=CC(=O)Nc1cc(Nc2ncc(Cl)c(-c3cnn4ccccc34)n2)c(OC)cc1N(C)CCN(C)C [Example 52, N-(5-((5-chloro-4-(pyrazolo[1,5-a]pyridin-3-yl)pyrimidin-2-yl)amino)-2-((2-(dimethylamino)ethyl)-(methyl)amino)-4-methoxyphenyl)-acrylamide] | > 7.00 | > 7.00 | – | > 7.00 | 6.30 to 7.00 | > 7.00 | – |
| C=CC(=O)Nc1cc(Nc2ncc(C(=O)OC(C)C)c(-c3cn(C)c4ccccc34)n2)c(OC)cc1N(C)C[C@H]1CCCN1C [Example 36, (R)-isopropyl 2-((5-acrylamido-2-methoxy-4-(methyl((1-methylpyrrolidin-2-yl)methyl)amino)phenyl)amino)-4-(1-methyl-1H-indol-3-yl)pyrimidine-5-carboxylate] | > 7.00 | > 7.00 | – | > 7.00 | > 7.00 | > 7.00 | – |
| C=CC(=O)Nc1cc(Nc2nccc(-c3c(-c4ccccc4)n(C)c4ccccc34)n2)c(OC)cc1N(C)CCN(C)C [Example 7, N-(2-((2-(dimethylamino)ethyl)(methyl)amino)-4-methoxy-5-((4-(1-methyl-2-phenyl-1H-indol-3-yl)pyrimidin-2-yl)amino)phenyl)acrylamide] | 6.30 to 7.00 | > 7.00 | – | > 7.00 | 6.30 to 7.00 | > 7.00 | – |
| C=CC(=O)Nc1cc(Nc2ncc(C(=O)OC(C)C)c(-c3cn(C)c4ncccc34)n2)c(OC)cc1N(C)CCN(C)C [Example 34, isopropyl 2-((5-acrylamido-4-((2-(dimethylamino)ethyl)(methyl)amino)-2-methoxyphenyl)amino)-4-(1-methyl-1H-pyrrolo[2,3-b]pyridin-3-yl)pyrimidine-5-carboxylate] | > 7.00 | > 7.00 | – | > 7.00 | > 7.00 | > 7.00 | – |
| C=CC(=O)Nc1cc(Nc2ncc(C(=O)OC(C)C)c(-c3cn(CC)c4ccccc34)n2)c(OC)cc1N(C)CCN(C)C [Example 77, isopropyl 2-((5-acrylamido-4-((2-(dimethylamino)ethyl)(methyl)amino)-2-methoxyphenyl)amino)-4-(1-ethyl-1H-indol-3-yl)pyrimidine-5-carboxylate] | > 7.00 | > 7.00 | – | > 7.00 | > 7.00 | > 7.00 | – |
| C=CC(=O)Nc1cc(Nc2ncc(C(=O)OC(C)C)c(-c3cn(C)c4ccccc34)n2)c(OC)cc1N(C)CCNC [Example 58, isopropyl 2-((5-acrylamido-2-methoxy-4-(methyl(2-(methylamino)ethyl)-amino)phenyl)amino)-4-(1-methyl-1H-indol-3-yl)pyrimidine-5-carboxylate] | > 7.00 | > 7.00 | – | > 7.00 | > 7.00 | > 7.00 | – |
| C=CC(=O)Nc1cc(Nc2ncc(Cl)c(-c3c[nH]c4ccccc34)n2)c(OC)cc1N(C)CCN(C)C [Example 56, N-(5-((5-chloro-4-(1H-indol-3-yl)pyrimidin-2-yl)amino)-2-((2-(dimethylamino)ethyl)(methyl)amino)-4-methoxyphenyl)acrylamide] | > 7.00 | > 7.00 | – | > 7.00 | > 7.00 | > 7.00 | – |
| C=CC(=O)Nc1cc(Nc2ncc(P(C)(C)=O)c(-c3cn(C)c4ccccc34)n2)c(OC)cc1N(C)CCN(C)C [Example 96, N-(2-((2-(dimethylamino)ethyl)(methyl)amino)-5-((5-(dimethylphosphoryl)-4-(1-methyl-1H-indol-3-yl)pyrimidin-2-yl)amino)-4-methoxyphenyl)acrylamide] | < 6.00 | – | B (Group B compounds have an IC50 value for the indicated mutant between about 100 to about 500 nM) | – | < 6.00 | – | B (Group B compounds have an IC50 value for the indicated mutant between about 100 to about 500 nM) |
| C=CC(=O)Nc1cc(Nc2nccc(-c3cn(C)c4cc(-c5cnn(C)c5)ccc34)n2)c(OC)cc1N(C)CCN(C)C [Example 95, N-(2-((2-(dimethylamino)ethyl)(methyl)amino)-4-methoxy-5-((4-(1-methyl-6-(1-methyl-1H-pyrazol-4-yl)-1H-indol-3-yl)pyrimidin-2-yl)amino)phenyl)acrylamide] | > 7.00 | – | – | > 7.00 | 6.30 to 7.00 | > 7.00 | – |
| C=CC(=O)Nc1cc(Nc2nccc(-c3c(C(=O)NC)n(C)c4ccccc34)n2)c(OC)cc1N(C)CCN(C)C [Example 91, 3-(2-((5-acrylamido-4-((2-(dimethylamino)ethyl)(methyl)amino)-2-methoxyphenyl)amino)pyrimidin-4-yl)-N,1-dimethyl-1H-indole-2-carboxamide] | 6.30 to 7.00 | – | B (Group B compounds have an IC50 value for the indicated mutant between about 100 to about 500 nM) | > 7.00 | 6.00 to 6.30 | – | – |
| C=CC(=O)Nc1cc(Nc2nccc(-c3cn(C)c4cc(C#N)ccc34)n2)c(OC)cc1N(C)CCN(C)C [Example 89, N-(5-((4-(6-cyano-1-methyl-1H-indol-3-yl)pyrimidin-2-yl)amino)-2-((2-(dimethylamino)ethyl)(methyl)amino)-4-methoxyphenyl)acrylamide] | > 7.00 | – | – | > 7.00 | 6.30 to 7.00 | > 7.00 | – |
| C=CC(=O)Nc1cc(Nc2nccc(-c3cn(CC(N)=O)c4ccccc34)n2)c(OC)cc1N(C)CCN(C)C [Example 70, N-(5-((4-(1-(2-amino-2-oxoethyl)-1H-indol-3-yl)pyrimidin-2-yl)amino)-2-((2-(dimethylamino)ethyl)(methyl)amino)-4-methoxyphenyl)acrylamide] | > 7.00 | – | – | > 7.00 | 6.30 to 7.00 | > 7.00 | – |
